Assay [1] has as its target T1, AmpC (Pseudomonas aeruginosa, UniProt P24735).
T1 construct: made in house; host or cells: E. coli
The settings on record: read-out: Cyclic Boronate (CB2) IC50; cited from earlier work.

Assay [2] deals with T2, CphA (Aeromonas hydrophila, UniProt P26918).
T2 construct: made in house; host or cells: E. coli
The settings on record: cited from earlier work.

For assay [3], the system named is CTX-M15. Details: method as in PMID 28115348. The settings on record: read-out: Cyclic Boronate (CB2) IC50; cited from earlier work.
Assay [4] deals with T3, L1 (Stenotrophomonas maltophilia, UniProt P52700).
T3 construct: made in house; host or cells: E. coli
The settings on record: cited from earlier work.

The target of assay [5] is cephalosporinase P99. Details: method as in PMID 25782055. The settings on record: read-out: Vaborbactam Ki; P99, nitrocefin assay; cited from earlier work.
Assay [6] deals with CMY-2. Details: method as in PMID 25782055. The settings on record: read-out: Vaborbactam Ki; CMY-2, nitrocefin assay; cited from earlier work.
The target of assay [7] is KPC-2 carbapenemase. Details: method as in PMID 25782055. The settings on record: read-out: Vaborbactam Ki; KPC-2, nitrocefin assay; cited from earlier work.
Assay [8] has as its target CTX-M15. Details: method as in PMID 25782055. The settings on record: read-out: Vaborbactam Ki; CTX-M15, nitrocefin assay; cited from earlier work.
Assay [9] addresses T4, IMP-1 (Serratia marcescens, UniProt P52699).
T4 construct: made in house; host or cells: E. coli
The experiment in a line: β-lactamase inhibition, FC-5 fluorogenic cephalosporin assay. It counts as biochemical. The settings on record: IMP-1, subclass B1. The protocol: (§1) Recombinant MBLs and SBLs were produced in E. coli and purified following reported procedures^1-6 and were all >95% pure (as judged by SDS-PAGE and MS analyses). Note the TEM enzyme used in this study is named TEM-116^7, in previous studies this has been assigned incorrectly as TEM-1^3, 5, 8-14. […] Activity was assayed by monitoring the release of a fluorophore following the enzymatic breakdown of the cephalosporin FC-5^15, with the exception of the class B2 MBLs, where the hydrolysis of meropenem was used as a readout^16. FC-5 assays were conducted in clear bottomed 384 black well microplates (Greiner) and the initial rate of reaction was assessed by monitoring the fluorescence intensity (λex = 380 nm and λem = 460 nm) using a PHERAstar FS (BMG LabTech) plate reader^15. For the B2 MBLs, assays were carried out in 96 well UV star microplates (Greiner) and UV absorbance at λ = 300 nm monitored. Initial rates of reaction were determined and dose-response analyses conducted in GraphPad Prism^15.

Assay [10] concerns the target T5, NDM-1 (Klebsiella pneumoniae, UniProt C7C422).
T5 construct: made in house; host or cells: E. coli
Described as above. It counts as biochemical. The settings on record: NDM-1, subclass B1. The protocol: as §1

In assay [11] the target is T6, OXA-10 (Pseudomonas aeruginosa, UniProt P14489).
T6 construct: made in house; host or cells: E. coli
Described as above. The settings on record: for IC50: OXA-10, class D. It counts as biochemical. The protocol:
as §1

Assay [12] addresses T3, L1. Described as above. The settings on record: L1, subclass B3. It counts as biochemical. The protocol:
as §1

Assay [13] addresses T1, AmpC. The description is as above. The settings on record: class C. It counts as biochemical. The protocol:
as §1

The target in assay [14] is T7, KPC-2 (Klebsiella pneumoniae, UniProt Q9F663).
T7 construct: made in house; host or cells: E. coli
The description is as above. It counts as biochemical. The settings on record: KPC-2, class A. The protocol:
as §1

The target in assay [15] is T8, VIM-1 (Pseudomonas aeruginosa, UniProt A0A0F7KYQ8).
T8 construct: made in house; host or cells: E. coli
The description is as above. It counts as biochemical. The settings on record: VIM-1, subclass B1. The protocol: as §1

The target of assay [16] is T9, VIM-2 (Escherichia coli, UniProt Q5U7L7).
T9 construct: made in house; host or cells: E. coli
Described as above. It counts as biochemical. The settings on record: VIM-2, subclass B1. The protocol:
as §1

The target of assay [17] is SHV-12. The settings on record: read-out: Vaborbactam Ki; SHV-12, nitrocefin assay; cited from earlier work.
In assay [18] the target is T10, OXA-48 (Klebsiella pneumoniae, UniProt Q6XEC0).
T10 construct: made in house; host or cells: E. coli
The experiment in a line: β-lactamase inhibition, FC-5 fluorogenic cephalosporin assay. It counts as biochemical. The settings on record: Vaborbactam IC50, OXA-48, class D, 100 mM NaHCO3.

Assay [19] deals with T2, CphA. The experiment in a line: β-lactamase inhibition, meropenem hydrolysis UV assay. It counts as biochemical. The settings on record: subclass B2. The protocol: as §1
In assay [20] the test system is class B MBLs (IMP-1, VIM-1, VIM-2, NDM-1 and L1). Details: method as in PMID 27401561. The settings on record: across the same range of inhibitor concentrations as vaborbactam; cited from earlier work.

Structures are written as SMILES. “Also recorded” adds a separate entry of the source. Where two headings read alike, the source gives them in different places.

A word on the IC50: it is the concentration that inhibits the measured activity by half. In general, Ki refers to the dissociation constant of the complex between target and ligand, obtained from inhibition or displacement.

T3 sequence (P52700 34-290): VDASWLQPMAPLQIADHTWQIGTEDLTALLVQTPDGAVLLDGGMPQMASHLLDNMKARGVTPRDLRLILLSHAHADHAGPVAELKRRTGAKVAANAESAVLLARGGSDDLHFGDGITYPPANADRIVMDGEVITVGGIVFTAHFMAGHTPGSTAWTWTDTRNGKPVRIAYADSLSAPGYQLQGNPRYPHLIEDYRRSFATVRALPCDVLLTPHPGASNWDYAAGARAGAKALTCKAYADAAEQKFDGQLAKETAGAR
T6 sequence (P14489 20-266, species assumed): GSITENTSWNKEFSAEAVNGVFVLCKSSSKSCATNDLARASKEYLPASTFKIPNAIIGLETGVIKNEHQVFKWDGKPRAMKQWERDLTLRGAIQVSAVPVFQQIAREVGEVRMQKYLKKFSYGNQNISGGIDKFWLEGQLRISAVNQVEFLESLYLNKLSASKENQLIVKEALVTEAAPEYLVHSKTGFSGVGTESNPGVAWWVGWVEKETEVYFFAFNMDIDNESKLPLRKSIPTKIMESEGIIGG
T2 sequence (P26918 28-254): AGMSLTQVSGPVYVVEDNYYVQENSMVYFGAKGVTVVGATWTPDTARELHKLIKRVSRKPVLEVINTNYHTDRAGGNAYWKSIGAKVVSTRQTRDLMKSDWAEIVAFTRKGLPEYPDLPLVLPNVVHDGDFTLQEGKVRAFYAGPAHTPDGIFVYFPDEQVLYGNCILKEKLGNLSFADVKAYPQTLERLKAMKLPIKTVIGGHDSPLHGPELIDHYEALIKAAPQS
T1 sequence (P24735 27-397): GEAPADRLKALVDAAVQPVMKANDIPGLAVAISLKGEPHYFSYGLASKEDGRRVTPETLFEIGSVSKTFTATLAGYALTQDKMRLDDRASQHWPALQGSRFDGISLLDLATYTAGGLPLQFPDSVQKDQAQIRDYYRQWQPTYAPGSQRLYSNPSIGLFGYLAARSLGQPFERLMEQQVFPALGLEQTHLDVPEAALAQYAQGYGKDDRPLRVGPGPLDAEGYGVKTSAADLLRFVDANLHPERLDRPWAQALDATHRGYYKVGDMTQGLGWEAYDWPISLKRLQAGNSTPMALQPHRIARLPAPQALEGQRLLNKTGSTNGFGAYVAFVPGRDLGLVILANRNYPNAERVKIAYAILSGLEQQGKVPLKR
T4 sequence (P52699 19-246, looked up, species assumed): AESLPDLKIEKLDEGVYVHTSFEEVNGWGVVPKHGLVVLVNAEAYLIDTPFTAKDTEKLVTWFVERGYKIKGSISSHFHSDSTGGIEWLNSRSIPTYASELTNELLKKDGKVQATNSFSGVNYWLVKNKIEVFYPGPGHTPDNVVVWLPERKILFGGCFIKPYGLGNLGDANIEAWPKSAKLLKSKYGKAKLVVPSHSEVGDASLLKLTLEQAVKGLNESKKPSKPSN
T5 sequence (C7C422 29-270, looked up, species assumed): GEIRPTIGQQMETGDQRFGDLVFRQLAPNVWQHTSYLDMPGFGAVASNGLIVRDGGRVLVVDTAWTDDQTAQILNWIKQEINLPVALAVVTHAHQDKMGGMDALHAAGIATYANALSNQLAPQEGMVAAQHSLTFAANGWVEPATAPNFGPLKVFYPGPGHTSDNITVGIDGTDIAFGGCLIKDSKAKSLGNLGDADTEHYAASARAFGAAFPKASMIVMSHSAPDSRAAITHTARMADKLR
T10 sequence (Q6XEC0 23-265, looked up, species assumed): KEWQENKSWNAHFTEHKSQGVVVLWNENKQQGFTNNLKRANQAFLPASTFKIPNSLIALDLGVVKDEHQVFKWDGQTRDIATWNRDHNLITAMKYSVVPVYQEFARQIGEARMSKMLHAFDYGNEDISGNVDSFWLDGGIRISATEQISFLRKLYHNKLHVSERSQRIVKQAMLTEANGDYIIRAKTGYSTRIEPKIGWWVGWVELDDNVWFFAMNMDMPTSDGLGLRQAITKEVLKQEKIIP
T7 sequence (Q9F663 25-293, looked up, species assumed): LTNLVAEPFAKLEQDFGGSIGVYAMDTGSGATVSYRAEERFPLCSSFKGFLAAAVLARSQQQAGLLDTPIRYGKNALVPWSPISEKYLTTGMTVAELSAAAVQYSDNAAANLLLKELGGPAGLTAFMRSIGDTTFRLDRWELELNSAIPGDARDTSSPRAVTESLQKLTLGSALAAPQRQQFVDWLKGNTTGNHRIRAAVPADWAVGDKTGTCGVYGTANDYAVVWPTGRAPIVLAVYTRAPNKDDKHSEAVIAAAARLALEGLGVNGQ

Consider `NCc1ccc(C(=O)N[C@H]2Cc3cccc(C(=O)O)c3OB2O)cc1` [CB2], for which the IC50 in [1] was 120 nM; in assay [2] (read-out: Cyclic Boronate (CB2) IC50, CphA), above 100 µM; in assay [3], 13 nM. For the same molecule, in assay [2] (CphA (mono Zn(II))), the “inhibitory activity against B2 CphA” value is on record as “do not exhibit inhibitory activity”. Besides, the “Cyclic Boronate (CB2) IC50” value in assay [4] is “do not exhibit inhibitory activity; also recorded: Not inhibited[19]”.

On to `O=C(O)C[C@@H]1CC[C@H](NC(=O)Cc2cccs2)B(O)O1` [Vaborbactam, vaborbactam], for which the Ki in [5] is 53 nM; in assay [6] it was 99 nM; in assay [7], 69 nM; in [8] it was 44 nM; in [17] it was 29 nM. Further, the half-inhibitory concentration (IC50) in assay [9] is 126 µM; in [10] it was 631 µM; in assay [11] (without NaHCO3) it was above 400 µM; in assay [11] (read-out: Vaborbactam IC50, 100 mM NaHCO3), above 400 µM; in assay [12], 336 µM; in assay [13], 5 µM. The IC50 in assay [14] came out at 90 nM; in assay [15], 398 µM; in assay [16], 316 µM; in assay [18], 32 µM; in assay [19] it was 631 µM. Further, the inhibition at 400 µM in assay [11] (read-out: inhibition of OXA-10 at the highest tested concentration) was below 50%.

On to `NC(=O)[C@@H]1CC[C@@H]2CN1C(=O)N2OS(=O)(=O)O` [avibactam], for which the “inhibition of MBLs” value in assay [20] was “does not show any inhibition”.

These data come from PMC6593178 (Bioorganic & Medicinal Chemistry Letters, 2019).
